Test [1] can be described thus: FRAP assay (ferric reducing antioxidant power). The settings on record: Trolox equivalents. As to the method:
The assessment of antioxidant activity was also carried out by the FRAP (Ferric Reduction Aantioxidant Power) method based on electron transfer similar to the CUPRAC method, while in the DPPH test, the reaction proceeded according to the HAT mechanism. Antioxidant activity of compounds 1–6 was also calculated in Trolox equivalents (TEACFRAP). […] The lowest activity was obtained for trisulfide 1 and disulfide 5, which are characterized by the absence of functional groups in the benzene ring. The TEACFRAP values for disulfide 2 with a methoxy group and compounds 4 and 6 with a phenolic fragment differed insignificantly and amounted to 0.58 and 0.69 Trolox equivalents.
The sample solution (0.1 mL) was mixed with 0.1 mL phosphate buffer (0.2 M, pH 6.6) and 0.1 mL potassium ferricyanide (1%). For each test compound different concentrations in EtOH were used (5, 10, 25, 50, 100, 200 and 250 μM). The resulting mixture was incubated at 50 °C for 20 min. After the incubation period, 0.1 mL trichloroacetic acid (10%), 0.5 mL deionized water, and 0.1 mL ferric chloride (0.1%) were added to the mixture. The sample absorbance was read at 700 nm with a 96-cell microplate spectrophotometer. The reduction of Fe (III) to Fe (II) could be expressed as % inhibition or equivalent of a standard compound (e.g., Trolox).

The nature of test [2]: TBARS accumulation in oleic acid oxidation. Particulars: 1 mmol/L additive, 65 °C, 3 h. On the procedure: The total antioxidant activity of compounds 1–6 during the oxidation of oleic acid with atmospheric oxygen at 65 °C for 3 h was determined by standard methods according to the level of accumulation of the main metabolites. Hydroperoxides as primary products (LOOH) and secondary LPO carbonyl products formed colored complexes with thiobarbituric acid (TBARS).
The kinetics of LOOH and TBARS formation was similar in the control test and in the presence of the studied compounds. The exponential kinetic curves of LOOH accumulation in oleic acid corresponded to the equation CLOOH = a × e^kt with correlation coefficients close to 1. It indicated a pseudo-first order of reaction in the substrate, inherent in a radical process with degenerate chain branching (Figure 2). The kinetic curves of secondary carbonyl products were linear and corresponded to the equation CTBARS = kt + b, with correlation coefficients close to 1 (Figure 3).
The accumulation rate for the final oxidation products (TBARS) was determined according to a modified standard method. Samples (0.01 mL) of oleic acid were taken from the thermostat every 30 min. They were introduced into a test tube containing a mixture of Tris buffer (0.8 mL), distilled water (1.2 mL), and freshly prepared thiobarbituric acid solution (0.8%, 1 mL). The tube was placed for 10 min in a boiling water bath, and after cooling, the absorption of the samples was measured in comparison with that of the control at λ = 532 nm. A similar mixture, but without added oleic acid, was used as the control. The concentration of carbonyl compounds was calculated according to the formula:
[TBARS] = (E × 3)/0.156, where [TBARS] is the content of carbonyl compounds, nM; E is the extinction of a sample relative to the control; 3 is the sample volume, mL; and 0.156 is the extinction of malondialdehyde (1 nmol) dissolved in 1 mL at λ = 532 nm.

Test [3] in a line: Antiradical activity, quinoid oxidation (autoxidation) of adrenaline. Particulars: adrenaline autoxidation in alkaline buffer, compound initial 25 µM.
In test [4] the test system is SOD. Description: SOD-protective activity, cytosolic fraction of liver homogenate. The test is classed as biochemical, Russian sturgeon. Particulars: adrenaline oxidation with biopreparation, compound initial 25 µM. From the text: Superoxide dismutase (SOD) is present in almost all aerobic cells and extracellular fluids and is able to inhibit the accumulation of adrenochrome by intercepting O2^–•. The process of splitting O2^–• by SOD into O2 and H2O2 occurs in the body, which is facilitated by the presence of metal ions Cu, Zn, Mn and Fe, playing an important role in lipid peroxidation. […] This system is also suitable for determining the activity of the endogenous enzyme–antioxidant SOD responsible for the utilization of O2^–• [43, 44]. The reaction sequence of adrenaline autoxidation with the adrenochrome formation was described earlier.
SOD-protective activity of the biopreparation was the ability to utilize the superoxide anion radical O2^–•, as determined by the method of Sirota. A cytosolic fraction of the Russian sturgeon liver homogenate was used as the source of SOD. First, the sturgeon liver was washed with cold 0.2 M Tris (tris (hydroxymethyl) aminomethane) buffer (pH 7.8) to remove any traces of blood. All of the procedures were performed at a temperature of 0–4 °C. Next, a homogenate was obtained using a Potter homogenizer (Thomas Scientifc, Swedesboro, NJ, USA) in 0.2 M Tris buffer at a ratio of 1:10. The homogenate was then centrifuged for 10 min at 1000× g to remove partially destroyed cells and nuclei. The resulting supernatant contained the enzymes of the cytosolic fraction of the liver homogenate, including the SOD. Here, 10 µL of the biopreparation was added to a cuvette with 200 µL of bicarbonate buffer (pH 10.65), 10 µL of the tested compound (initial concentrations of these compounds 25 µM) and 10 µL of 0.1% adrenaline solution and was thoroughly and quickly mixed. The rate of adrenaline oxidation without and in the presence of the biopreparation was evaluated by the change in optical density, measured at 347 nm for 3 min. The decrease in the rate of the process in the presence of the biopreparation was used to characterize the SOD-protective activity.

Test [5] in a line: CUPRAC assay (cupric reducing antioxidant capacity). The settings on record: Trolox equivalents; compound 0.5 mM, 30 min. As to the method: Antioxidant activity can be evaluated by the CUPRAC test (cupric reducing antioxidant capacity) based on the ability of the compound to reduce Cu^2+ in complex with 2,9-dimethyl-1,10-phenanthroline (neocuproin). The antioxidant capacity of compounds 1–6 in the CUPRAC test was measured in equivalents of the water-soluble analogue of vitamin E—Trolox (TEACCUPRAC) (Table 2). […] The TEACCUPRAC values of disulfides 4 and 6 were quite close and indicated the manifestation of antioxidant activity mainly due to the presence of HO-groups. The slightly lower activity of compound 4 was explained by the absence of tert-butyl groups in its structure.
Neocuproine (2,9-dimethyl-1,10-phenanthroline) and Trolox were used with no further purification. The method proposed by Apak et al. was used with slight modification. For these measurements, 0.05 mL of CuCl2 solution (0.01 M), 0.05 mL of MeOH neocuproine solution (7.5 mM) and 0.05 mL of ammonium acetate buffer solution (1 M) were added to a test tube, followed by mixing with the 0.05 mL tested compounds (0.5 mM). The mixtures were kept at room temperature for 30 min. Absorbance was measured at 450 nm against a reagent blank. The results were presented in Trolox equivalents (Trolox equivalent antioxidant capacity, TEAC) obtained using absorbance data, and the linear calibration curve was plotted as absorbance vs. Trolox concentration.

“And” between values parts separate entries of the source, which are not always exact repeats. Identical values can stand only once.

Take `c1ccc(SSc2ccccc2)cc1` [Compound 5, diphenyl disulfide]: the “TEAC FRAP” value in test [1] amounted to 0.06 ± 0.05.

With `CC(C)(C)c1cc(SSc2cc(C(C)(C)C)c(O)c(C(C)(C)C)c2)cc(C(C)(C)C)c1O` [Compound 6, bis(3,5-di-tert-butyl-4-hydroxyphenyl) disulfide], the “TEAC FRAP” value in test [1] is 0.69 and 0.69 ± 0.02.

Consider `COc1ccccc1SSc1ccccc1OC` [Compound 2, bis(2-methoxyphenyl) disulfide], for which, in test [1], the “TEAC FRAP” value was 0.58 and 0.58 ± 0.05. The “TBARS, % Inhibition” value in test [2] is listed as 42.9 ± 0.76%. Besides, the “Antiradical Activity, % Inhibition” value in test [3] came to 50 ± 3.1%. Moreover, the “SOD Activity of Liver Sturgeon, % Inhibition” value (from here on “SOD Activity … % Inhibition”) in test [4] was determined as 60 ± 3.3%. Also, in test [5], the “TEAC CUPRAC” value is given as “non active”.

Consider `COc1ccc(SSc2ccc(OC)c(OC)c2)cc1OC` [Compound 3, bis(3,4-dimethoxyphenyl) disulfide], for which the “TEAC CUPRAC” value in test [5] was determined as 0.06 ± 0.01.

As to `c1ccc(SSSc2ccccc2)cc1` [Compound 1, diphenyl trisulfide], in test [1], the “TEAC FRAP” value is reported as 0.06 ± 0.01. Moreover, in test [2], the “TBARS, % Inhibition” value turned out to be 21.0 ± 0.18%. For the same compound, the “Antiradical Activity, % Inhibition” value in test [3] is on record as 30 ± 1.9%. In test [4], the “SOD Activity … % Inhibition” value turned out to be 41 ± 2.7%. Besides, the “TEAC CUPRAC” value in test [5] was “non active”.

As to `Oc1ccc(SSc2ccc(O)cc2)cc1` [Compound 4, 4,4′-dihydroxydiphenyl disulfide], the “TEAC FRAP” value in test [1] was 0.69 and 0.69 ± 0.07. Further, the “TBARS, % Inhibition” value in test [2] was determined as 39.0 ± 0.49%. Moreover, the “Antiradical Activity, % Inhibition” value in test [3] is recorded as 36 ± 2.3%. Further, in test [4], the “SOD Activity … % Inhibition” value is given as 75 ± 5.6%. Besides, the “TEAC CUPRAC” value in test [5] is 1.8 and 1.80 ± 0.06.

For the origin of these results see paper PMC9229798, “Antioxidant Activity and Cytotoxicity of Aromatic Oligosulfides” (Molecules, 2022).
